We go through 16 compounds from ChEMBL document CHEMBL3046134, “Synthesis and antiviral activity of benzimidazolyl- and triazolyl-1,3,5-triazines” (Med Chem Res, 2012).

One data set concerns Human alphaherpesvirus 1. The experiment in a line: Antiviral activity against Human herpesvirus 1 infected African green monkey Vero cells assessed as protection against virus-induced cytopathic effect after 3 days by plaque reduction assay. The class given is functional, organism-based. Conditions: Human alphaherpesvirus 1, Vero, 72 h.
Data set [1] in a line: Selectivity index, ratio of CC50 for african green monkey Vero cells to EC50 for HSV1 infected in African green monkey Vero cells.
Data set [2] is described as follows: Cytotoxicity against Chlorocebus aethiops (African green monkey) Vero cells assessed as cell viability after 3 days by Alamar blue assay. The class given is cell-based. Conditions: chlorocebus sabaeus.

Values after ≈ are worked out from the molar mass of the structure shown.

As for `Cc1ccc2[nH]c(SCc3nc(N)nc(Nc4ccccc4C)n3)nc2c1`, in the data set with Human alphaherpesvirus 1, the 50% effective concentration (EC50) was more than 10 µg/mL.
`COc1ccc(Nc2nc(N)nc(CSc3nnc(-c4ccccc4)n3-c3ccccc3)n2)cc1`: in the data set on Human alphaherpesvirus 1, the EC50 is more than 10 µg/mL.
As to `Cc1ccccc1Nc1nc(N)nc(CSc2nnc(-c3ccccc3)n2-c2ccccc2)n1`, the “Ratio CC50/EC50” value in data set [1] was determined as 234. Besides, in data set [2], the CC50 at 72 h was determined as 1750 µg/mL (≈ 3750 µM). In addition, the concentration for a half-maximal effect (EC50) in the data set with Human alphaherpesvirus 1 is 7.5 µg/mL (≈ 16.1 µM).
The like results for `COc1ccc(Nc2nc(N)nc(CSc3nnc(-c4ccncc4)n3-c3ccccc3)n2)cc1` were, in that order, 215, 1500 µg/mL (≈ 3100 µM) and 7 µg/mL (≈ 14.5 µM).
The like results for `Cc1ccccc1Nc1nc(N)nc(CSc2nnc(-c3ccncc3)n2-c2ccccc2)n1` were, in that order, 275, 1650 µg/mL (≈ 3530 µM) and 6 µg/mL (≈ 12.8 µM).
Regarding `COc1ccc(Nc2nc(N)nc(CSc3nnc(-c4ccccc4)n3/N=C/c3ccccc3)n2)cc1`, the “Ratio CC50/EC50” value in data set [1] is 188. Moreover, the CC50 at 72 h in data set [2] was 1500 µg/mL (≈ 2940 µM). Besides, the EC50 in the data set on Human alphaherpesvirus 1 worked out at 8 µg/mL (≈ 15.7 µM).
Consider `Cc1ccccc1Nc1nc(N)nc(CSc2nnc(-c3ccccc3)n2/N=C/c2ccccc2)n1`, for which the “Ratio CC50/EC50” value in data set [1] was 358. In data set [2], the half-maximal cytotoxic concentration (CC50) at 72 h came to 1250 µg/mL (≈ 2530 µM). In addition, the EC50 in the data set with Human alphaherpesvirus 1 stood at 3.5 µg/mL (≈ 7.09 µM).
Taken in the same sequence, the figures for `Cc1ccccc1Nc1nc(N)nc(CSc2nnc(-c3ccccc3)n2/N=C/c2ccc(Br)cc2)n1` were 300, 1500 µg/mL (≈ 2620 µM) and 5 µg/mL (≈ 8.73 µM).
`Nc1nc(CSc2nc3ccccc3[nH]2)nc(Nc2ccccc2)n1`: the EC50 with Human alphaherpesvirus 1 is more than 10 µg/mL.
The same measure, in the same setting: the same measure for `Cc1ccc(Nc2nc(N)nc(CSc3nc4ccccc4[nH]3)n2)cc1`: more than 10 µg/mL.
On to `Nc1nc(CSc2nc3ccccc3[nH]2)nc(Nc2ccc(Cl)cc2)n1`, for which the “Ratio CC50/EC50” value in data set [1] stood at 175. Further, the 50% cytotoxic concentration (CC50) at 72 h in data set [2] is 1500 µg/mL (≈ 3910 µM). Moreover, the EC50 in the data set with Human alphaherpesvirus 1 came to 8.5 µg/mL (≈ 22.1 µM).
Take `COc1ccc(Nc2nc(N)nc(CSc3nc4ccccc4[nH]3)n2)cc1`: the EC50 in the data set with Human alphaherpesvirus 1 is more than 10 µg/mL.
As to `Cc1ccccc1Nc1nc(N)nc(CSc2nc3ccccc3[nH]2)n1`, the half-maximal cytotoxic concentration (CC50) at 72 h in data set [2] is more than 2000 µg/mL. Besides, the half-maximal effective concentration (EC50) in the data set with Human alphaherpesvirus 1 was determined as 9 µg/mL (≈ 24.8 µM).
Take `Cc1ccc2[nH]c(SCc3nc(N)nc(Nc4ccccc4)n3)nc2c1`: in the data set on Human alphaherpesvirus 1, the EC50 is more than 10 µg/mL.
The same measure, in the same setting: for `Cc1ccc(Nc2nc(N)nc(CSc3nc4cc(C)ccc4[nH]3)n2)cc1` the value was more than 10 µg/mL.
With `Nc1nc2c(ncn2COCCO)c(=O)[nH]1` [ACYCLOVIR], the “Ratio CC50/EC50” value in data set [1] is recorded as 850. Also, in data set [2], the CC50 at 72 h was 1280 µg/mL (≈ 5660 µM). For the same compound, the concentration for a half-maximal effect (EC50) in the data set on Human alphaherpesvirus 1 came to 1.5 µg/mL (≈ 6.66 µM).
